Molecules are shown by their SMILES.

Broadly, the IC50 is the point on the concentration scale where inhibition reaches its midpoint.

One test deals with Nav 1.7 (Homo sapiens (Human), UniProt Q15858). Briefly: in-vitro Nav 1.7 PX data. It is filed as cell-based.
Chain of Nav 1.7 (Q15858 whole entry): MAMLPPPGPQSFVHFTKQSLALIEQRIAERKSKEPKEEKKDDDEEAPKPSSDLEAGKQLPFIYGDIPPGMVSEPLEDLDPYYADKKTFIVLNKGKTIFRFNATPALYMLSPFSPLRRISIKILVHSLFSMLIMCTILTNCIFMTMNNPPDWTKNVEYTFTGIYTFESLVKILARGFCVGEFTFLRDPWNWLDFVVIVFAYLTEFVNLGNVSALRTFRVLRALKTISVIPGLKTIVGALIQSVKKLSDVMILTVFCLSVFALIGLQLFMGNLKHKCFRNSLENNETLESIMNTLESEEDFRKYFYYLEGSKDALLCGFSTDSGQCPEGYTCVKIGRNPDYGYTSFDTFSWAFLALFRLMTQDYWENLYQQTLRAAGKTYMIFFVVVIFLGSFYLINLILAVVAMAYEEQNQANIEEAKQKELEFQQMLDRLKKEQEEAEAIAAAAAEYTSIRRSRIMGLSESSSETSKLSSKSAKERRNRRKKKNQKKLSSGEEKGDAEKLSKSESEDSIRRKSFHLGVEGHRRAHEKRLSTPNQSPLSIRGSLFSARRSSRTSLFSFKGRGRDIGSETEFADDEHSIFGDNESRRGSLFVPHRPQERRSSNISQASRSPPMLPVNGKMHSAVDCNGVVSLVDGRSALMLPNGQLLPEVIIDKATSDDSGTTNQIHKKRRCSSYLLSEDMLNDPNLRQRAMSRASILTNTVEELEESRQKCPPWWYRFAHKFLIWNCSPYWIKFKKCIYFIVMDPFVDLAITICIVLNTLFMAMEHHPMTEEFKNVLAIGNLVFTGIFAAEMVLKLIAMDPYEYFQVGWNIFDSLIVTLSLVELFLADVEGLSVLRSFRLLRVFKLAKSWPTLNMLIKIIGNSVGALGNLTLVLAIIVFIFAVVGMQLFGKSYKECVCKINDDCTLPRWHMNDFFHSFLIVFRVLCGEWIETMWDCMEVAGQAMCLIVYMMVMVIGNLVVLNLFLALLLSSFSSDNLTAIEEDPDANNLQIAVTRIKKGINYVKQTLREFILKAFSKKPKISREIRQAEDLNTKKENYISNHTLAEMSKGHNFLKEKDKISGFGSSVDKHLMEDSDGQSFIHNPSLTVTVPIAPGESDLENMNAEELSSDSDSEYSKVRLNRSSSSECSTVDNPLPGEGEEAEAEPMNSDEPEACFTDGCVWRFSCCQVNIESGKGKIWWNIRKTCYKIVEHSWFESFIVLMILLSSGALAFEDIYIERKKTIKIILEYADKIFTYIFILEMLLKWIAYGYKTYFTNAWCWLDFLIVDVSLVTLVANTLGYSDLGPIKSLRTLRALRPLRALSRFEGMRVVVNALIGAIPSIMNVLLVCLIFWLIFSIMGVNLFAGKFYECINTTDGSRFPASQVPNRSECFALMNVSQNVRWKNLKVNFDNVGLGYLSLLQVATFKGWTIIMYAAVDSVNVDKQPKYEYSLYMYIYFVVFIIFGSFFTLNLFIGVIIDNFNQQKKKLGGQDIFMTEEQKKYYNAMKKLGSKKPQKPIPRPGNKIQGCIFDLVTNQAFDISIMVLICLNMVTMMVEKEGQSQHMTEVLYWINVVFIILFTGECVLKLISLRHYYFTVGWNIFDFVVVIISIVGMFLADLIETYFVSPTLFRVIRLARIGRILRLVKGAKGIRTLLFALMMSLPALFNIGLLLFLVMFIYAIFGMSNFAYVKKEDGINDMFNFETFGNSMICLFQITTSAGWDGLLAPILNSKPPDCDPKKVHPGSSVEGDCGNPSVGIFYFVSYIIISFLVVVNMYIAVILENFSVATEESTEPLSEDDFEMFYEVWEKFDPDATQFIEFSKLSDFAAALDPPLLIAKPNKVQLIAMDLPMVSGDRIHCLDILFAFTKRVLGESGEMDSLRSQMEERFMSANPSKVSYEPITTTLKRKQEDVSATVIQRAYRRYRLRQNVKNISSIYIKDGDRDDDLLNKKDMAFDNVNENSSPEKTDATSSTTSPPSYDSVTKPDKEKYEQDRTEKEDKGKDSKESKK
Settings: not given
The compound `COc1cc(-c2cccc(C(F)(F)F)c2)c(F)cc1-c1nncc2cc(S(=O)(=O)Nc3ccon3)ccc12` [Example 3, 1-(2-FLUORO-5-METHOXY-3′-(TRIFLUOROMETHYL)-[1,1′-BIPHENYL]-4-YL)-N-(ISOXAZOL-3-YL)PHTHALAZINE-6-SULFONAMIDE] displayed an IC50 of 30.5 nM.

`COc1nnc(NS(=O)(=O)c2ccc3c(-c4ccc(-c5cc(F)cc(F)c5)cc4OC)nccc3c2)s1` [Example 8, 1-(3′,5′-DIFLUORO-3-METHOXY-[1,1′-BIPHENYL]-4-YL)-N-(5-METHOXY-1,3,4-THIADIAZOL-2-YL)ISOQUINOLINE-6-SULFONAMIDE] had a half-maximal inhibitory concentration (IC50) of 3290 nM.

In the case of `O=S(=O)(Nc1ccon1)c1ccc2c(-c3ccc(-c4cccc(F)c4)cc3CO)nccc2c1` [Example 12, 1-(3′-FLUORO-3-(HYDROXYMETHYL)-[1,1′-BIPHENYL]-4-YL)-N-(ISOXAZOL-3-YL)ISOQUINOLINE-6-SULFONAMIDE 2,2,2-TRIFLUOROACETATE], the IC50 was found to be 2210 nM.

`COc1cc(N2CC(F)(F)C2)c(C#N)cc1-c1nccc2cc(S(=O)(=O)Nc3ccon3)ccc12` [Example 23, 1-(5-CYANO-4-(3,3-DIFLUOROAZETIDIN-1-YL)-2-METHOXYPHENYL)-N-(ISOXAZOL-3-YL)ISOQUINOLINE-6-SULFONAMIDE] returned an IC50 of 988 nM.

As to `COc1cc(C(F)(F)F)ccc1-c1ncnc2cc(S(=O)(=O)Nc3ccon3)ccc12` [Example 38, N-(ISOXAZOL-3-YL)-4-(2-METHOXY-4-(TRIFLUOROMETHYL)PHENYL)QUINAZOLINE-7-SULFONAMIDE], inhibition was half-maximal at 2570 nM (IC50).

The test is the same for the next values; noted with them: PatchXpress (PX), in vitro.
The compound `COc1nc(Oc2ccc(F)cc2)ccc1-c1nccc2cc(S(=O)(=O)Nc3ccncn3)ccc12` [Example 45, 1-(6-(4-FLUOROPHENOXY)-2-METHOXYPYRIDIN-3-YL)-N-(PYRIMIDIN-4-YL)ISOQUINOLINE-6-SULFONAMIDE] came in with a half-maximal inhibitory concentration (IC50) of 1510 nM.

Regarding `COc1nc(N(CC(C)C)CC(C)C)ccc1-c1nccc2cc(S(=O)(=O)Nc3ccncn3)ccc12` [Example 46, 1-(6-(DIISOBUTYLAMINO)-2-METHOXYPYRIDIN-3-YL)-N-(PYRIMIDIN-4-YL)ISOQUINOLINE-6-SULFONAMIDE], the IC50 amounted to 13600 nM.

Take `COc1nc(NCC(C)(C)C)ccc1-c1nccc2cc(S(=O)(=O)Nc3ccncn3)ccc12` [Example 47, 1-(2-METHOXY-6-(NEOPENTYLAMINO)PYRIDIN-3-YL)-N-(PYRIMIDIN-4-YL)ISOQUINOLINE-6-SULFONAMIDE]: the IC50 was 899 nM.

In the case of `COc1nc(OC2CCCCC2)ccc1-c1nccc2cc(S(=O)(=O)Nc3ccncn3)ccc12` [Example 65, 1-(6-(cyclohexyloxy)-2-methoxy-3-pyridinyl)-N-4-pyrimidinyl-6-isoquinolinesulfonamide], it took 1730 nM to reach half-maximal inhibition (IC50).

In the case of `COc1nc(OCC(C)(C)C)ccc1-c1nccc2cc(S(=O)(=O)Nc3ccncn3)ccc12` [Example 67, 1-(6-(2,2-dimethylpropoxy)-2-methoxy-3-pyridinyl)-N-4-pyrimidinyl-6-isoquinolinesulfonamide], it took 1010 nM to reach half-maximal inhibition (IC50).

`COc1nc(N(C)CC(C)C)ccc1-c1nccc2cc(S(=O)(=O)Nc3ccncn3)ccc12` [Example 68, 1-(2-methoxy-6-(methyl(2-methylpropyl)amino)-3-pyridinyl)-N-4-pyrimidinyl-6-isoquinolinesulfonamide] came in with an IC50 of 2880 nM.

In the case of `COc1ccc(-c2nccc3cc(S(=O)(=O)Nc4ccncn4)ccc23)c(NCC(C)(C)C)n1` [Example 70, 1-(2-((2,2-dimethylpropyl)amino)-6-methoxy-3-pyridinyl)-N-4-pyrimidinyl-6-isoquinolinesulfonamide], the midpoint of inhibition, the IC50, lay at 2510 nM.

As to `COc1nc(N2CCC(F)(F)CC2)ccc1-c1nccc2cc(S(=O)(=O)Nc3ccncn3)ccc12` [Example 71, 1-(6-(4,4-difluoro-1-piperidinyl)-2-methoxy-3-pyridinyl)-N-4-pyrimidinyl-6-isoquinolinesulfonamide], the IC50 was found to be 834 nM.

`COc1nc(N2CCCC2)ccc1-c1nccc2cc(S(=O)(=O)Nc3ccncn3)ccc12` [Example 72, 1-(2-methoxy-6-(1-pyrrolidinyl)-3-pyridinyl)-N-4-pyrimidinyl-6-isoquinolinesulfonamide]: the IC50 is 7710 nM.

For `COc1nc(NC2CCC(F)(F)CC2)ccc1-c1nccc2cc(S(=O)(=O)Nc3ccncn3)ccc12` [Example 74, 1-(6-((4,4-difluorocyclohexyl)amino)-2-methoxy-3-pyridinyl)-N-4-pyrimidinyl-6-isoquinolinesulfonamide], inhibition was half-maximal at 811 nM (IC50).

On to `COc1nc(OC2CCC(F)(F)CC2)ccc1-c1nccc2cc(S(=O)(=O)Nc3ccncn3)ccc12` [Example 75, 1-(6-((4,4-difluorocyclohexyl)oxy)-2-methoxy-3-pyridinyl)-N-4-pyrimidinyl-6-isoquinolinesulfonamide], for which the midpoint of inhibition, the IC50, lay at 727 nM.

In the case of `COc1cc(-c2ccc(Cl)c(C)c2)c(F)cc1-c1nccc2cc(S(=O)(=O)Nc3cccnn3)ccc12` [Example 87, 1-(4′-chloro-2-fluoro-5-methoxy-3′-methyl-4-biphenylyl)-N-3-pyridazinyl-6-isoquinolinesulfonamide], the IC50 came to 178 nM.

`COc1cc(-c2ccc(Cl)c(C)c2)c(F)cc1-c1nccc2cc(S(=O)(=O)Nc3ncccn3)ccc12` [Example 88, 1-(4′-chloro-2-fluoro-5-methoxy-3′-methyl-4-biphenylyl)-N-2-pyrimidinyl-6-isoquinolinesulfonamide]: the IC50 was 227 nM.

Compound `COc1cc(-c2ccc(F)c(C)c2)c(F)cc1-c1nccc2cc(S(=O)(=O)Nc3ccon3)ccc12` [Example 89, 1-(2,4′-difluoro-5-methoxy-3′-methyl-4-biphenylyl)-N-3-isoxazolyl-6-isoquinolinesulfonamide] had an IC50 of 96.4 nM.

Regarding `COc1cc(-c2ccc(Cl)c(C)c2)c(F)cc1-c1nccc2cc(S(=O)(=O)Nc3ccon3)ccc12` [Example 90, 1-(4′-chloro-2-fluoro-5-methoxy-3′-methyl-4-biphenylyl)-N-3-isoxazolyl-6-isoquinolinesulfonamide], the IC50 came out at 59.5 nM.

Staying with this test, now noted: in-vitro Nav 1.7 PX data.
As to `O=S(=O)(Nc1nncs1)c1ccc2c(-c3ccc(-c4cccc(F)c4)cc3CO)nccc2c1` [Example 11, 1-(3′-FLUORO-3-(HYDROXYMETHYL)-[1,1′-BIPHENYL]-4-YL)-N-(1,3,4-THIADIAZOL-2-YL)ISOQUINOLINE-6-SULFONAMIDE], the IC50 is 1600 nM.

As for `COc1cc(Oc2ccc(F)c(C)c2)ccc1-c1nccc2cc(S(=O)(=O)Nc3ccncn3)ccc12` [Example 29, 1-(4-(4-FLUORO-3-METHYLPHENOXY)-2-METHOXYPHENYL)-N-(PYRIMIDIN-4-YL)ISOQUINOLINE-6-SULFONAMIDE], it took 1580 nM to reach half-maximal inhibition (IC50).

`COc1cc(-c2nccc3cc(S(=O)(=O)Nc4ccon4)ccc23)c(C)cc1-c1ccc(Cl)c(C)c1` [Example 35] had an IC50 of 3300 nM.

Compound `Cc1ccc(Oc2ccccn2)cc1-c1nccc2cc(S(=O)(=O)Nc3ccncn3)ccc12` [Example 40, 1-(2-METHYL-5-(PYRIDIN-2-YLOXY)PHENYL)-N-(PYRIMIDIN-4-YL)ISOQUINOLINE-6-SULFONAMIDE] came in with an IC50 of 5690 nM.

The test is the same for the next values; noted with them: in-vitro PX.
With `COc1cc(N2CC(F)(F)C2)c(C#N)cc1-c1nccc2cc(S(=O)(=O)Nc3nncs3)ccc12` [Example 24, 1-(5-CYANO-4-(3,3-DIFLUOROAZETIDIN-1-YL)-2-METHOXYPHENYL)-N-(1,3,4-THIADIAZOL-2-YL)ISOQUINOLINE-6-SULFONAMIDE], the midpoint of inhibition, the IC50, lay at 1360 nM.

Turning to `COc1cc(-c2cccc(F)c2)ccc1C1c2ccc(S(=O)(=O)Nc3nncs3)cc2CCN1C(C)=O` (stereo not shown) [Example 52, 2-ACETYL-1-(3′-FLUORO-3-METHOXY-[1,1′-BIPHENYL]-4-YL)-N-(1,3,4-THIADIAZOL-2-YL)-1,2,3,4-TETRAHYDROISOQUINOLINE-6-SULFONAMIDE], the concentration for half-maximal inhibition (IC50) was 1690 nM.

The test is the same for the next values; noted with them: in-vitro PX (PatchXpress) data.
In the case of `COc1cc(-c2cc(F)cc(F)c2)ccc1-c1ccnc2cc(S(=O)(=O)Nc3nncs3)ccc12` [Example 13, 4-(3′,5′-DIFLUORO-3-METHOXY-[1,1′-BIPHENYL]-4-YL)-N-(1,3,4-THIADIAZOL-2-YL)QUINOLINE-7-SULFONAMIDE], the IC50 worked out at 453 nM.

`COc1cc(-c2cccc(F)c2)c(Cl)cc1-c1ncnc2cc(S(=O)(=O)Nc3cccnn3)ccc12` [Example 15, 4-(2-CHLORO-3′-FLUORO-5-METHOXY-[1,1′-BIPHENYL]-4-YL)-N-(PYRIDAZIN-3-YL)QUINAZOLINE-7-SULFONAMIDE]: the IC50 was 110 nM.

As to `COc1cc(-c2cccc(F)c2)ccc1-c1n[nH]c(=O)c2cc(S(=O)(=O)Nc3nncs3)ccc12` [Example 18, 1-(3′-FLUORO-3-METHOXY-[1,1′-BIPHENYL]-4-YL)-4-OXO-N-(1,3,4-THIADIAZOL-2-YL)-3,4-DIHYDROPHTHALAZINE-6-SULFONAMIDE], the half-maximal inhibitory concentration (IC50) turned out to be 1420 nM.

`COc1cc(-c2ccc(F)c(Cl)c2)c(Cl)cc1-c1ncnc2cc(S(=O)(=O)Nc3ccon3)ccc12` [Example 19, 4-(2,3′-DICHLORO-4′-FLUORO-5-METHOXY-[1,1′-BIPHENYL]-4-YL)-N-(ISOXAZOL-3-YL)QUINAZOLINE-7-SULFONAMIDE] yielded an IC50 of 7.8 nM.

In turn, `COc1cc(Oc2cc(C)cc(F)c2)ccc1-c1nccc2cc(S(=O)(=O)Nc3nncs3)ccc12` [Example 32, 1-(4-(3-FLUORO-5-METHYLPHENOXY)-2-METHOXYPHENYL)-N-(1,3,4-THIADIAZOL-2-YL)ISOQUINOLINE-6-SULFONAMIDE] registered an IC50 of 129 nM.

Turning to `COc1cc(-c2ncnc3cc(S(=O)(=O)Nc4ccon4)ccc23)c(C)cc1-c1ccc(Cl)c(C)c1` [Example 34], 2610 nM corresponded to half-maximal inhibition (IC50).

In turn, `O=S(=O)(Nc1ccncn1)c1ccc2c(-c3ccc(C(F)(F)F)cc3C3CC3)ncnc2c1` [Example 36, 4-(2-CYCLOPROPYL-4-(TRIFLUOROMETHYL)-PHENYL)-N-(PYRIMIDIN-4-YL)QUINAZOLINE-7-SULFONAMIDE] displayed an IC50 of 744 nM.

Staying with this test, now noted: in-vitro PX data.
As for `Cn1nccc1-c1cc(-c2cc(F)cc(F)c2)ccc1-c1nccc2cc(S(=O)(=O)Nc3ccon3)ccc12` [Example 4, 1-(3′,5′-DIFLUORO-3-(1-METHYL-1H-PYRAZOL-5-YL)-[1,1′-BIPHENYL]-4-YL)-N-(ISOXAZOL-3-YL)ISOQUINOLINE-6-SULFONAMIDE 2,2,2-TRIFLUOROACETATE], the IC50 turned out to be 148 nM.

Values taken from patent US9776995B2, “Bicyclic sulfonamide compounds as sodium channel inhibitors” (AMGEN INC., priority 2013, dated 2017).
